# Data as given in ChEMBL document CHEMBL1145884, “Synthesis and biological activity of novel 1beta-methylcarbapenems with oxyiminopyrrolidinylamide moiety” (2003).
# Tested on: Escherichia coli
# Assay: Compound was evaluated for its antibacterial activity against Escherichia coli CCARM 1111 MDR
# Type: functional
# Conditions: not given
row,SMILES,MIC
1,C[C@@H](O)[C@H]1C(=O)N2C(C(=O)[O-])=C(S[C@@H]3CN[C@H](C(=O)Nc4cccc(C(=O)O)c4)C3)[C@H](C)[C@H]12.O.[Na+],≤ 0.008 µg/mL

# Tested on: Escherichia coli
# Assay: Compound was evaluated for its antibacterial activity against Escherichia coli 0157:H7
# Type: functional
# Conditions: not given
row,SMILES,MIC
1,C[C@@H](O)[C@H]1C(=O)N2C(C(=O)[O-])=C(S[C@@H]3CN[C@H](C(=O)Nc4cccc(C(=O)O)c4)C3)[C@H](C)[C@H]12.O.[Na+],≤ 0.008 µg/mL

# Tested on: Klebsiella pneumoniae
# Assay: Compound was evaluated for its antibacterial activity against Klebsiella pneumoniae 10 ESBL
# Type: functional
# Conditions: not given
row,SMILES,MIC
1,C[C@@H](O)[C@H]1C(=O)N2C(C(=O)[O-])=C(S[C@@H]3CN[C@H](C(=O)Nc4cccc(C(=O)O)c4)C3)[C@H](C)[C@H]12.O.[Na+],0.016 µg/mL

# Tested on: Escherichia coli
# Assay: Compound was evaluated for its antibacterial activity against Escherichia coli CCARM 1109 MDR
# Type: functional
# Conditions: not given
row,SMILES,MIC
1,C[C@@H](O)[C@H]1C(=O)N2C(C(=O)[O-])=C(S[C@@H]3CN[C@H](C(=O)Nc4cccc(C(=O)O)c4)C3)[C@H](C)[C@H]12.O.[Na+],0.06 µg/mL

# Tested on: Pseudomonas aeruginosa
# Assay: Compound was evaluated for its antibacterial activity against Pseudomonas aeruginosa 3 MDR
# Type: functional
# Conditions: not given
row,SMILES,MIC
1,C[C@@H](O)[C@H]1C(=O)N2C(C(=O)[O-])=C(S[C@@H]3CN[C@H](C(=O)Nc4cccc(C(=O)O)c4)C3)[C@H](C)[C@H]12.O.[Na+],8 µg/mL

# Tested on: Shigella sonnei
# Assay: Compound was evaluated for its antibacterial activity against Shigella sonnei ATCC 9290
# Type: functional
# Conditions: not given
row,SMILES,MIC
1,C[C@@H](O)[C@H]1C(=O)N2C(C(=O)[O-])=C(S[C@@H]3CN[C@H](C(=O)Nc4cccc(C(=O)O)c4)C3)[C@H](C)[C@H]12.O.[Na+],≤ 0.008 µg/mL

# Tested on: Escherichia coli
# Assay: Compound was evaluated for its antibacterial activity against Escherichia coli CCARM 1110 MDR
# Type: functional
# Conditions: not given
row,SMILES,MIC
1,C[C@@H](O)[C@H]1C(=O)N2C(C(=O)[O-])=C(S[C@@H]3CN[C@H](C(=O)Nc4cccc(C(=O)O)c4)C3)[C@H](C)[C@H]12.O.[Na+],0.03 µg/mL

# Tested on: Klebsiella pneumoniae
# Assay: Compound was evaluated for its antibacterial activity against Klebsiella pneumoniae 3 ESBL
# Type: functional
# Conditions: not given
row,SMILES,MIC
1,C[C@@H](O)[C@H]1C(=O)N2C(C(=O)[O-])=C(S[C@@H]3CN[C@H](C(=O)Nc4cccc(C(=O)O)c4)C3)[C@H](C)[C@H]12.O.[Na+],0.5 µg/mL

# Tested on: Escherichia coli
# Assay: Compound was evaluated for its antibacterial activity against Escherichia coli CCARM 1115 MDR
# Type: functional
# Conditions: not given
row,SMILES,MIC
1,C[C@@H](O)[C@H]1C(=O)N2C(C(=O)[O-])=C(S[C@@H]3CN[C@H](C(=O)Nc4cccc(C(=O)O)c4)C3)[C@H](C)[C@H]12.O.[Na+],0.06 µg/mL

# Tested on: Pseudomonas aeruginosa
# Assay: Compound was evaluated for its antibacterial activity against Pseudomonas aeruginosa ATCC 27853
# Type: functional
# Conditions: not given
row,SMILES,MIC
1,C[C@@H](O)[C@H]1C(=O)N2C(C(=O)[O-])=C(S[C@@H]3CN[C@H](C(=O)Nc4cccc(C(=O)O)c4)C3)[C@H](C)[C@H]12.O.[Na+],4 µg/mL

# Tested on: Pseudomonas aeruginosa
# Assay: Compound was evaluated for its antibacterial activity against Pseudomonas aeruginosa 1 MDR
# Type: functional
# Conditions: not given
row,SMILES,MIC
1,C[C@@H](O)[C@H]1C(=O)N2C(C(=O)[O-])=C(S[C@@H]3CN[C@H](C(=O)Nc4cccc(C(=O)O)c4)C3)[C@H](C)[C@H]12.O.[Na+],8 µg/mL

# Tested on: Klebsiella pneumoniae
# Assay: Compound was evaluated for its antibacterial activity against Klebsiella pneumoniae 2 ESBL
# Type: functional
# Conditions: not given
row,SMILES,MIC
1,C[C@@H](O)[C@H]1C(=O)N2C(C(=O)[O-])=C(S[C@@H]3CN[C@H](C(=O)Nc4cccc(C(=O)O)c4)C3)[C@H](C)[C@H]12.O.[Na+],0.016 µg/mL

# Tested on: Escherichia coli
# Assay: Compound was evaluated for its antibacterial activity against Escherichia coli CCARM 1112 MDR
# Type: functional
# Conditions: not given
row,SMILES,MIC
1,C[C@@H](O)[C@H]1C(=O)N2C(C(=O)[O-])=C(S[C@@H]3CN[C@H](C(=O)Nc4cccc(C(=O)O)c4)C3)[C@H](C)[C@H]12.O.[Na+],0.016 µg/mL

# Tested on: Klebsiella pneumoniae
# Assay: Compound was evaluated for its antibacterial activity against Klebsiella pneumoniae 7 ESBL
# Type: functional
# Conditions: not given
row,SMILES,MIC
1,C[C@@H](O)[C@H]1C(=O)N2C(C(=O)[O-])=C(S[C@@H]3CN[C@H](C(=O)Nc4cccc(C(=O)O)c4)C3)[C@H](C)[C@H]12.O.[Na+],0.25 µg/mL

# Tested on: Enterobacter cloacae
# Assay: Compound was evaluated for its antibacterial activity against Enterobacter cloacae P99
# Type: functional
# Conditions: not given
row,SMILES,MIC
1,C[C@@H](O)[C@H]1C(=O)N2C(C(=O)[O-])=C(S[C@@H]3CN[C@H](C(=O)Nc4cccc(C(=O)O)c4)C3)[C@H](C)[C@H]12.O.[Na+],0.06 µg/mL

# Tested on: Escherichia coli
# Assay: Compound was evaluated for its antibacterial activity against Escherichia coli CCARM 1116 MDR
# Type: functional
# Conditions: not given
row,SMILES,MIC
1,C[C@@H](O)[C@H]1C(=O)N2C(C(=O)[O-])=C(S[C@@H]3CN[C@H](C(=O)Nc4cccc(C(=O)O)c4)C3)[C@H](C)[C@H]12.O.[Na+],≤ 0.008 µg/mL

# Tested on: Klebsiella pneumoniae
# Assay: Compound was evaluated for its antibacterial activity against Klebsiella pneumoniae 9 ESBL
# Type: functional
# Conditions: not given
row,SMILES,MIC
1,C[C@@H](O)[C@H]1C(=O)N2C(C(=O)[O-])=C(S[C@@H]3CN[C@H](C(=O)Nc4cccc(C(=O)O)c4)C3)[C@H](C)[C@H]12.O.[Na+],0.016 µg/mL

# Tested on: Escherichia coli
# Assay: Compound was evaluated for its antibacterial activity against Escherichia coli DC 0
# Type: functional
# Conditions: not given
row,SMILES,MIC
1,C[C@@H](O)[C@H]1C(=O)N2C(C(=O)[O-])=C(S[C@@H]3CN[C@H](C(=O)Nc4cccc(C(=O)O)c4)C3)[C@H](C)[C@H]12.O.[Na+],≤ 0.008 µg/mL

# Tested on: Salmonella enteritidis
# Assay: Compound was evaluated for its antibacterial activity against […] enteritidis 3
# Type: functional, Salmonella enterica subsp. enterica serovar Enteritidis
# Conditions: Salmonella enterica
row,SMILES,MIC
1,C[C@@H](O)[C@H]1C(=O)N2C(C(=O)[O-])=C(S[C@@H]3CN[C@H](C(=O)Nc4cccc(C(=O)O)c4)C3)[C@H](C)[C@H]12.O.[Na+],≤ 0.008 µg/mL

# Tested on: Klebsiella pneumoniae
# Assay: Compound was evaluated for its antibacterial activity against Klebsiella pneumoniae 8 ESBL
# Type: functional
# Conditions: not given
row,SMILES,MIC
1,C[C@@H](O)[C@H]1C(=O)N2C(C(=O)[O-])=C(S[C@@H]3CN[C@H](C(=O)Nc4cccc(C(=O)O)c4)C3)[C@H](C)[C@H]12.O.[Na+],1 µg/mL
